Measured values: EP2857388A1, “Azoles containing sulfone” (Grünenthal GmbH, priority 2013, dated 2015)

Molecular target: T1, human B1R (Homo sapiens, UniProt P46663)
T1 construct: expressed in transfected cells; host or cells: CHO K1 cells (Chinese Hamster Ovary), stably transfected
T1 sequence (P46663 1-353): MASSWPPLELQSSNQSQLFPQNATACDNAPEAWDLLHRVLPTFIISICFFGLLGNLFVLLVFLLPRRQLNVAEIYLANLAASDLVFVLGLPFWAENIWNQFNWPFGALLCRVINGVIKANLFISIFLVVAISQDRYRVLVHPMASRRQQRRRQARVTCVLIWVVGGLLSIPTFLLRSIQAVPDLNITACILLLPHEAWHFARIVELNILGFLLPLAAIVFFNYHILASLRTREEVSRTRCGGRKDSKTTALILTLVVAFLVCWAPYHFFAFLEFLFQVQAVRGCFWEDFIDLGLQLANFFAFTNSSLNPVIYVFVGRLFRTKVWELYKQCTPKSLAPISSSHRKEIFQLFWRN
Test: Functional assay at bradykinin receptor 1 (B1R): Ca2+ fluorescence (Fluo-4) in FLIPR/Novostar, antagonist mode
Type: cell-based
Conditions: test substance 10 µM; CHO K1 cells stably transfected with human B1R gene (hB1R-Zellen); agonist Lys-Des-Arg9-Bradykinin at EC80; % inhibition relative to maximal achievable inhibition; read-out: % Inhibierung (human B1R) bei 10 µM
Summary of the method: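 CHO K1 cells stably expressing human B1R were loaded with Fluo-4 and preincubated 6–20 min with test compound before Lys-Des-Arg9-bradykinin at its EC80. Peak fluorescence (ex 488/em 540 nm) gave % inhibition versus maximal inhibition; IC50 from several concentrations, n=2 or 3.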

Row | Compound | inhibition at 10 µM [%]
1 | COc1cc(C)c(S(=O)(=O)Cc2noc(C(=O)NCC3CCC(c4ccncc4)CC3)n2)c(C)c1 (centres unmarked) [SC-30, 3-[[(4-Methoxy-2,6-dimethyl-phenyl)sulfonyl]-methyl]-N-[(4-pyridin-4-yl-cyclohexyl)-methyl]-[1,2,4]oxadiazol-5-carbonsäure amid] | 98
2 | COc1cc(C)c(S(=O)(=O)Cc2noc(C(=O)NC3CCC(c4ccncc4)CC3(C)C)n2)c(C)c1 (centres unmarked) [SC-31, N-(2,2-Dimethyl-4-pyridin-4-yl-cyclohexyl)-3-[[(4-methoxy-2,6-dimethyl-phenyl)sulfonyl]-methyl]-[1,2,4]oxadiazol-5-carbonsäure amid] | 97
3 | COc1cc(C)c(S(=O)(=O)Cc2noc(CC(=O)NC3CCC(c4ccncc4)CC3(C)C)n2)c(C)c1 (centres unmarked) [SC-32, N-(2,2-Dimethyl-4-pyridin-4-yl-cyclohexyl)-2-[3-[[(4-methoxy-2,6-dimethyl-phenyl)sulfonyl]-methyl]-[1,2,4]oxadiazol-5-yl]-acetamid] | 98
4 | COc1cc(C)c(S(=O)(=O)Cc2noc(CC(=O)N(C)C3CCC4(CCN(C)CC4)CC3(C)C)n2)c(C)c1 (centres unmarked) [SC-33, 2-[3-[[(4-Methoxy-2,6-dimethyl-phenyl)sulfonyl]-methyl]-[1,2,4]oxadiazol-5-yl]-N-methyl-N-(4,4,9-trimethyl-9-azaspiro[5.5]undecan-3-yl)-acetamid] | 100
5 | COc1cc(C)c(S(=O)(=O)Cc2noc(CC(=O)NC3CCC(O)CC3(C)C)n2)c(C)c1 (centres unmarked) [SC-35, N-(4-Hydroxy-2,2-dimethyl-cyclohexyl)-2-[3-[[(4-methoxy-2,6-dimethyl-phenyl)sulfonyl]-methyl]-[1,2,4]oxadiazol-5-yl]-acetamid] | 100
6 | COc1cc(C)c(S(=O)(=O)Cc2noc(CC(=O)NC3CCOCC3(C)C)n2)c(C)c1 (centres unmarked) [SC-36, N-(3,3-Dimethyl-tetrahydro-pyran-4-yl)-2-[3-[[(4-methoxy-2,6-dimethyl-phenyl)sulfonyl]-methyl]-[1,2,4]oxadiazol-5-yl]-acetamid] | 98
7 | COc1cc(C)c(S(=O)(=O)Cc2noc(CC(=O)NC3CCC(c4ccncc4)CC3)n2)c(C)c1 (centres unmarked) [SC-37, 2-[3-[[(4-Methoxy-2,6-dimethyl-phenyl)sulfonyl]-methyl]-[1,2,4]oxadiazol-5-yl]-N-(4-pyridin-4-yl-cyclohexyl)-acetamid] | 100
8 | COc1cc(C)c(S(=O)(=O)Cc2noc(CC(=O)NC3CCN(C4CCOCC4)CC3(C)C)n2)c(C)c1 (centres unmarked) [SC-39, N-(3,3-Dimethyl-1-tetrahydro-pyran-4-yl-piperidin-4-yl)-2-[3-[[(4-methoxy-2,6-dimethyl-phenyl)sulfonyl]-methyl]-[1,2,4]oxadiazol-5-yl]-acetamid] | 100
9 | COc1cc(C)c(S(=O)(=O)Cc2noc(CC(=O)NC3CCC(c4ccnc(OC)c4)CC3(C)C)n2)c(C)c1 (centres unmarked) [SC-40, 2-[3-[[(4-Methoxy-2,6-dimethyl-phenyl)sulfonyl]-methyl]-[1,2,4]oxadiazol-5-yl]-N-[4-(2-methoxy-pyridin-4-yl)-2,2-dimethyl-cyclohexyl]-acetamid] | 100
10 | COc1cc(C)c(S(=O)(=O)Cc2noc(CC(=O)N3CCC(c4ccncc4)CC3)n2)c(C)c1 [SC-41, 2-[3-[[(4-Methoxy-2,6-dimethyl-phenyl)sulfonyl]-methyl]-[1,2,4]oxadiazol-5-yl]-1-(4-pyridin-4-yl-piperidin-1-yl)-ethanon] | 97
11 | COc1cc(C)c(S(=O)(=O)Cc2noc(CC(=O)N(C)C3CCN(c4cc(C)nc(C)n4)CC3)n2)c(C)c1 [SC-42, N-[1-(2,6-Dimethyl-pyrimidin-4-yl)-piperidin-4-yl]-2-[3-[[(4-methoxy-2,6-dimethyl-phenyl)sulfonyl]-methyl]-[1,2,4]oxadiazol-5-yl]-N-methyl-acetamid] | 99
12 | COc1cc(C)c(S(=O)(=O)Cc2noc(C(=O)N(C)[C@H]3CCC[C@@H](N4CCN(C)CC4)C3)n2)c(C)c1 [SC-43, 3-[[(4-Methoxy-2,6-dimethyl-phenyl)sulfonyl]-methyl]-N-methyl-N-[(1S,3R)-3-(4-methyl-piperazin-1-yl)-cyclohexyl]-[1,2,4]oxadiazol-5-carbonsäure amid] | 100
13 | COc1cc(C)c(S(=O)(=O)Cc2noc(CC(=O)N(C)[C@H]3CCC[C@@H](N4CCN(C)CC4)C3)n2)c(C)c1 [SC-44, 2-[3-[[(4-Methoxy-2,6-dimethyl-phenyl)sulfonyl]-methyl]-[1,2,4]oxadiazol-5-yl]-N-methyl-N-[(1S,3R)-3-(4-methyl-piperazin-1-yl)-cyclohexyl]-acetamid] | 100
14 | COc1cc(C)c(S(=O)(=O)Cc2noc(CC(=O)N(C)C3CCN(C(=O)CCN4CCCCC4)CC3)n2)c(C)c1 [SC-46, 2-[3-[[(4-Methoxy-2,6-dimethyl-phenyl)sulfonyl]-methyl]-[1,2,4]oxadiazol-5-yl]-N-methyl-N-[1-(3-piperidin-1-yl-propanoyl)-piperidin-4-yl]-acetamid] | 100
15 | Cc1cccc(Cl)c1S(=O)(=O)Cc1noc(C(=O)N(C)[C@H]2CCC[C@@H](N3CCN(C)CC3)C2)n1 [SC-49, 3-[[(2-Chlor-6-methyl-phenyl)sulfonyl]-methyl]-N-methyl-N-[(1S,3R)-3-(4-methyl-piperazin-1-yl)-cyclohexyl]-[1,2,4]oxadiazol-5-carbonsäure amid] | 99
16 | Cc1cccc(Cl)c1S(=O)(=O)Cc1noc(CC(=O)N(C)[C@H]2CCC[C@@H](N3CCN(C)CC3)C2)n1 [SC-50, 2-[3-[[(2-Chlor-6-methyl-phenyl)sulfonyl]-methyl]-[1,2,4]oxadiazol-5-yl]-N-methyl-N-[(1S,3R)-3-(4-methyl-piperazin-1-yl)-cyclohexyl]-acetamid] | 89
17 | COc1cc(C)c(S(=O)(=O)Cc2noc(CC(=O)N3CCN(Cc4ccc(OC)nc4)CC3)n2)c(C)c1 [SC-51, 2-[3-[[(4-Methoxy-2,6-dimethyl-phenyl)sulfonyl]-methyl]-[1,2,4]oxadiazol-5-yl]-1-[4-[(6-methoxy-pyridin-3-yl)-methyl]-piperazin-1-yl]-ethanon] | 100
18 | COc1cc(C)c(S(=O)(=O)Cc2noc(CC(=O)N3CCN(Cc4ccnc(N5CCCC5)c4)CC3)n2)c(C)c1 [SC-52, 2-[3-[[(4-Methoxy-2,6-dimethyl-phenyl)sulfonyl]-methyl]-[1,2,4]oxadiazol-5-yl]-1-[4-[(2-pyrrolidin-1-yl-pyridin-4-yl)-methyl]-piperazin-1-yl]-ethanon] | 100
19 | COc1cc(C)c(S(=O)(=O)Cc2noc(CC(=O)N(C)C3CCN(Cc4ccc(OC)nc4)CC3)n2)c(C)c1 [SC-55, 2-[3-[[(4-Methoxy-2,6-dimethyl-phenyl)sulfonyl]-methyl]-[1,2,4]oxadiazol-5-yl]-N-[1-[(6-methoxy-pyridin-3-yl)-methyl]-piperidin-4-yl]-N-methyl-acetamid] | 100
20 | COc1cc(C)c(S(=O)(=O)Cc2noc(CC(=O)N(C)C3CCN(Cc4ccnc(N5CCCC5)c4)CC3)n2)c(C)c1 [SC-57, 2-[3-[[(4-Methoxy-2,6-dimethyl-phenyl)sulfonyl]-methyl]-[1,2,4]oxadiazol-5-yl]-N-methyl-N-[1-[(2-pyrrolidin-1-yl-pyridin-4-yl)-methyl]-piperidin-4-yl]-acetamid] | 100
21 | COc1cc(C)c(S(=O)(=O)Cc2noc(CC(=O)N(C)C3CCC(N4CCN(C)CC4)CC3)n2)c(C)c1 (centres unmarked) [SC-58, 2-[3-[[(4-Methoxy-2,6-dimethyl-phenyl)sulfonyl]-methyl]-[1,2,4]oxadiazol-5-yl]-N-methyl-N-[4-(4-methyl-piperazin-1-yl)-cyclohexyl]-acetamid] | 100
22 | COc1cc(C)c(S(=O)(=O)Cc2noc(C(=O)N3CCN(Cc4ccc(OC)nc4)CC3)n2)c(C)c1 [SC-59, [3-[[(4-Methoxy-2,6-dimethyl-phenyl)sulfonyl]-methyl]-[1,2,4]oxadiazol-5-yl]-[4-[(6-methoxy-pyridin-3-yl)-methyl]-piperazin-1-yl]-methanon] | 100
23 | COc1cc(C)c(S(=O)(=O)Cc2noc(C(=O)N3CCN(Cc4ccnc(N5CCCC5)c4)CC3)n2)c(C)c1 [SC-60, [3-[[(4-Methoxy-2,6-dimethyl-phenyl)sulfonyl]-methyl]-[1,2,4]oxadiazol-5-yl]-[4-[(2-pyrrolidin-1-yl-pyridin-4-yl)-methyl]-piperazin-1-yl]-methanon] | 99
24 | COc1cc(C)c(S(=O)(=O)Cc2noc(C(=O)N3CCN(Cc4ccc(N5CCCC5)nc4)CC3)n2)c(C)c1 [SC-61, [3-[[(4-Methoxy-2,6-dimethyl-phenyl)sulfonyl]-methyl]-[1,2,4]oxadiazol-5-yl]-[4-[(6-pyrrolidin-1-yl-pyridin-3-yl)-methyl]-piperazin-1-yl]-methanon] | 100
25 | COc1cc(C)c(S(=O)(=O)Cc2noc(CC(=O)N3CCN(Cc4ccc(N5CCCC5)nc4)CC3)n2)c(C)c1 [SC-62, 2-[3-[[(4-Methoxy-2,6-dimethyl-phenyl)sulfonyl]-methyl]-[1,2,4]oxadiazol-5-yl]-1-[4-[(6-pyrrolidin-1-yl-pyridin-3-yl)-methyl]-piperazin-1-yl]-ethanon] | 100
26 | COc1cc(C)c(S(=O)(=O)Cc2noc(CC(=O)N(C)C3CCN(c4ncnc5ccccc45)CC3)n2)c(C)c1 [SC-63, 2-[3-[[(4-Methoxy-2,6-dimethyl-phenyl)sulfonyl]-methyl]-[1,2,4]oxadiazol-5-yl]-N-methyl-N-(1-chinazolin-4-yl-piperidin-4-yl)-acetamid] | 100
